Series [1] concerns cellules de mélanome murin B16 stimulées par le NDP-MSH. In words: Melanin synthesis in B16 melanoma cells stimulated by NDP-MSH (total melanin content, absorbance at 405 nm). Particulars: for Teneur en mélanine: NDP-MSH 0,1 µM, 72 h, percent of stimulated control, individual replicates. Type of series: cell-based. From the text: Dans la présente étude, l'effet blanchissant potentiel de l'acide sterculique a été évalué sur la synthèse de mélanine dans les cellules de mélanome murin B16 stimulées par un analogue stable de l'α-MSH, le NDP-MSH ([Nle4, D-Phe7]-α-Melanocyte Stimulating Hormone).
Le modèle de mélanocyte B16 constitue un modèle approprié pour la recherche d'effets inhibiteurs sur la production de mélanine car il est très réactif (par exemple à une stimulation NDP-MSH), ce qui entraîne une forte modulation de la production de mélanine entre les conditions basales et les conditions stimulées. Cette forte production de mélanine dans des conditions stimulées permet d'identifier les composés présentant des propriétés blanchissantes.
(§1) • Modèle biologique : • Type cellulaire : Lignée cellulaire de mélanome murin B16 (= mélanocytes B16) • Conditions de culture : 37°C, 5% CO2 • Milieu de culture : DMEM sans rouge de phénol optimisé pour l'essai, complété par du sérum de veau fœtal à 10%. • Composé testé : acide sterculique 50, 100 et 200 µM (dans 0.066% ethanol) • Essai préliminaire de cytotoxicité • Type de cellule : Cellules de mélanome murin B16 en milieu de culture • Durée d'incubation : 72 heures • Paramètres d'évaluation : Essai de réduction WST-8 et observations morphologiques à l'aide d'un microscope. Après traitement, les cellules sont incubées avec du WST-8 (sel de tétrazolium très soluble dans l'eau) réduit en un produit soluble dans l'eau de couleur orange (formazan) par la succinate déshydrogé-nase (enzyme mitochondriale). Cette transformation est proportionnelle au nombre de cellules vivantes et à leur activité métabolique. La densité optique (DO) des extraits à 450 nm a été enregistrée avec un spectromètre (VERSAmax, Molecular Devices). • Culture et traitement
Des cellules de mélanome B16 ont été ensemencées dans une plaque à 96 puits et incubées dans un milieu de culture pendant 24 heures.
Le milieu a ensuite été remplacé par du milieu de culture, en présence de NDP-MSH à 0,1 µM, contenant ou non : - le solvant témoin (éthanol testé à 0,066 %), • le composé d'essai acide sterculique testé à 50, 100 ou 200 µM, • l'acide kojique de référence testé à 0,5 mM ou 3 mM, • la combinaison du composé testé acide sterculique (50, 100 ou 200 µM) et de l'acide kojique à 0,5 mM.
Les cellules ont été incubées pendant 72 heures. En parallèle, une condition de contrôle non stimulée a été réalisée.
À la fin du temps d'incubation, l'absorbance à 405 nm a été mesurée et la teneur totale en mélanine (extracellulaire et intracellulaire) a été calculée pour chaque échantillon à l'aide d'une courbe standard de mélanine allant de 0,78 à 100 µg/ml.
Les valeurs de fond (interférences potentielles), mesurées dans les puits sans cellules, ont été soustraites aux valeurs calculées afin de considérer l'effet lié à la production de mélanine uniquement.
Les résultats ont été exprimés en pourcentage de mélanine par rapport au contrôle stimulé.

A further series concerns cellules B16. Briefly: Total protein quantity (DC Protein Assay) in B16 cells of the melanin test. The class given is cell-based, murin. The note with it: 200 µM; concluded from protein content. Here is the method:
La quantité de protéines totales contenues dans les cellules et les surnageants de chaque réplicat a été mesurée à l'aide du kit DC Protein Assay contre une gamme de BSA avec un lecteur de microplaques à 750 nm (VERSAmax, Molecular Devices).
Kit : DC Protein Assay de BIO-RAD ref 500-0116.
Limite de détection basse : 0,2 mg/ml Limite de détection haute : 2 mg/ml Pour chaque condition de test, la quantité de mélanine a été normalisée par rapport à la quantité de protéines totales.

In series [2] the test system is cellules de mélanome murin B16. In words: Preliminary cytotoxicity test, WST-8 reduction assay. Type of series: cell-based. The note with it: for % de cellules viables: 72 h incubation, WST-8, individual replicates. Here is the method:
Avant cet essai, un essai de cytotoxicité a été réalisé à l'aide d'un essai standard de réduction WST-8, afin de déterminer les concentrations à tester dans cette étude.
as §1
L'erreur standard de la moyenne (sem) est une mesure de la distance probable entre la moyenne de l'échantillon et la moyenne réelle de la population. Elle est calculée en divisant l'écart-type par la racine carrée de la taille de l'échantillon. Pourcentage deviabilité: viabilité(%) = (ODéchantillon/ODcontrôle) × 100 [formula] [formula]
On the technique in general: Tetrazolium dyes change colour on reduction, which living cells bring about.

Values joined by “and” are separate entries in the source; they are usually repeats but may differ in a detail not shown here. Identical values can stand only once. A value given as a limit tells only on which side of the number the result lay.

Regarding `CCCCCCCCC1=C(CCCCCCCC(=O)O)C1` [acide sterculique, 8-(2-octyl-cyclopropen-1-yl)-octanoic acid], the “effet sur la synthèse de mélanine” value in series [1] (50 µM, NDP-MSH-stimulated B16 cells) was “n'a eu aucun effet”. In series [1] (100 µM and 200 µM, strong, concentration-dependent inhibition of melanin synthesis), this compound had an inhibition relative of no more than 93%. Further, the “inhibition de la teneur en mélanine” value in series [1] (100 µM, B16 cells (Fig 2)) is “inhibition marquée”; in series [1] (200 µM, B16 cells (Fig 2)), “inhibition marquée”. Besides, the “efficacy on melanin content compared with acide kojique à 3mM” value in series [1] (200 µM, B16 cells (Fig 2)) is “aussi efficace que l'acide kojique à 3mM”. The “Teneur en mélanine” value in series [1] (AS 50 µM, listed as AS) is 103,1496% and 125,1337% and 106,9156%; in series [1] (AS 100 µM, listed as AS) it was 57,21785% and 56,01605% and 61,96404%; in series [1] (AS 200 µM, listed as AS) it was 13,64829% and 13,90374% and 21,16183%. Besides, the viabilité des cellules entry with cellules B16 was “n'inhibe pas la viabilité des cellules”. For the same compound, the “% de cellules viables” value is 112,1381% and 146,2746% and 110,4588% in series [2] (AcSter 12 µM); 82,74032% and 102,0043% and 72,79147% in series [2] (AcSter 37 µM); 112,2056% and 119,9363% and 106,0771% in series [2] (AcSter 111 µM); 26,41552% and 44,06769% and 52,32917% in series [2] (AcSter 333 µM); 1,061339% and 1,910951% and 2,113628% in series [2] (AcSter 1000 µM); 133,9982% and 119,6442% and 122,5711% in series [2] (AcSter 1,5 µM). For the same compound, in series [2] (up to 111 µM, B16 cells, WST-8 (Fig 1)), the “effet sur la viabilité” value is given as “n'a pas eu d'effet sur la viabilité”.

Consider `O=c1cc(CO)occ1O` [acide kojique, reference compound], for which the inhibition relative in series [1] (0,5 mM, melanin synthesis in NDP-MSH-stimulated B16 cells) is recorded as 65%; in series [1] (3 mM, inhibition of the NDP-MSH effect on melanin synthesis), 89%. Moreover, the “Teneur en mélanine” value in series [1] (KA 0,5 mM, listed as KA) is 31,36483% and 49,33155% and 42,04703%; in series [1] (KA 3 mM, listed as KA), 17,4540% and 20,7219% and 19,5020%.

Values taken from EP4555995B1, “COSMETIC USE OF A CYCLOPROPENE FATTY ACID FOR INHIBITING SCD ACTIVITY” (Laboratoires d'Anjou, priority 2023, dated 2025).
